We go through 5 molecules from ChEMBL document CHEMBL4376887, “Rose Bengal-Amphiphilic Peptide Conjugate for Enhanced Photodynamic Therapy of Malignant Melanoma” (J Med Chem, 2020).

Structures are written as SMILES. Calls of active or inactive are those of the source. No cut-off for these calls is given here.

Data set [1] concerns HeLa. Kind of data set: Photo-activated cytotoxicity against human HeLa cells assessed as reduction in cell viability preincubated for 4 hrs followed by compound washout and subsequent 3.3 mW cm'-2 light irradiation for 24 mins measured after 48 hrs by MTT assay. As to conditions: light or radiation study. It is filed as functional, cell-based. On the technique in general: Tetrazolium assays rely on reduction of a dye to a coloured formazan, in cell work by metabolically active cells.

Data set [2] relates to B16-F10-luc2. Put plainly: Photo-activated cytotoxicity against mouse B16-F10-luc2 cells assessed as cell viability at 1 uM preincubated for 3 hrs followed by compound washout and subsequent 22.8 J cm'-2 light irradiation for 60 secs measured after 21 hrs by MTT assay relative to control. It is filed as functional. To be noted: B16-F10-luc2, light or radiation study, read-out: Activity.

Data set [3] can be described thus: Cytotoxicity against mouse B16-F10-luc2 cells assessed as cell viability at 1 uM incubated for 24 hrs under dark condition by MTT assay relative to control. It is filed as cell-based. As to conditions: read-out: Activity.
Data set [4] concerns PANC-1. Put plainly: Cytotoxicity against human PANC1 cells assessed as reduction in cell viability up to 1 uM incubated for 24 hrs under dark condition by MTT assay. Format: cell-based. As to conditions: panc-1, 24 h.
The test system of data set [5] is MCF7. Put plainly: Cytotoxicity against human MCF7 cells assessed as reduction in cell viability up to 1 uM incubated for 24 hrs under dark condition by MTT assay. Format: cell-based. As to conditions: mcf7, 24 h.
Data set [6] is described as follows: Induction of ROS generation in ethanol assessed as reduction in DPBF absorbance at 410 nm at 1 uM preincubated for 10 mins followed by 342 J cm'-2 light irradiation for 15 mins and measured at 5 mins interval for 15 mins by spectrometric method. It is filed as functional.
Data set [7] relates to B16-F10-luc2. Put plainly: Antitumor activity against mouse B16-F10-luc2 cells implanted in SCID mouse assessed as tumor volume at 100 uM, iv administered 30 mins prior to 68.4 J cm'-2 light irradiation for 3 mins on day 1, 2, 7, and 9 measured for 12 days relative to control. Format: functional.
Data set [8] deals with B16-F10-luc2. Put plainly: Antitumor activity against mouse B16-F10-luc2 cells implanted in SCID mouse assessed as reduction in tumor growth at 100 uM, iv administered 30 mins prior to 68.4 J cm'-2 light irradiation for 3 mins on day 1, 2, 7, and 9 measured on day 13. Format: functional, organism-based.
For data set [9], the system named is B16-F10-luc2. Kind of data set: Induction of apoptosis in mouse B16-F10-luc2 cells assessed as decrease in viable cells at 1 uM measured after 24 hrs by Alexa Fluor 488 Annexin V/Dead Cell staining based flow cytometry. It is filed as functional. Background: Flow cytometry measures light scatter and fluorescence of single cells or particles in a stream.
The test system of data set [10] is B16-F10-luc2. Put plainly: Antitumor activity against mouse B16-F10-luc2 cells implanted in SCID mouse assessed as tumor growth at 100 uM, iv administered on day 1, 2, 7, and 9 measured for 12 days relative to control. It is filed as functional.
Data set [11] deals with B16-F10-luc2. Put plainly: Induction of apoptosis in mouse B16-F10-luc2 cells assessed as increase in late apoptotic cells at 1 uM measured after 24 hrs by Alexa Fluor 488 Annexin V/Dead Cell staining based flow cytometry. It is filed as functional.
Data set [12] is described as follows: Acute toxicity in mouse B16-F10-luc2 cells implanted SCID mouse at 100 uM, iv administered 30 mins prior to 68.4 J cm'-2 light irradiation for 3 mins on day 1, 2, 7, and 9. As to conditions: in vivo, 0.05 h. It is filed as organism-based.
Data set [13] in a line: Induction of singlet oxygen generation in ethanol at 1 uM preincubated for 10 mins followed by 342 J cm'-2 light irradiation for 15 mins and measured at 5 mins interval for 15 mins by spectrometric method. Format: functional.
Data set [14] relates to PANC-1. Put plainly: Photo-activated cytotoxicity against human PANC1 cells assessed as reduction in cell viability up to 1 uM preincubated for 3 hrs followed by compound washout and subsequent 22.8 J cm'-2 light irradiation for 60 secs measured after 21 hrs by MTT assay. It is filed as functional, cell-based.
Data set [15] concerns B16-F10-luc2. Put plainly: Induction of apoptosis in mouse B16-F10-luc2 cells assessed as increase in necrotic cells at 1 uM measured after 24 hrs by Alexa Fluor 488 Annexin V/Dead Cell staining based flow cytometry. It is filed as functional.
A short description of data set [16]: Drug uptake in mouse B16-F10-luc2 cells assessed as increase in fluorescence intensity at 10 uM measured after 3 hrs by confocal laser scanning microscopic analysis relative to RB. It is filed as ADME, cell-based. As to conditions: b16-f10-luc2, 3 h.
Data set [17] can be described thus: Toxicity in mouse B16-F10-luc2 cells implanted SCID mouse assessed as effect on body weight at 100 uM, iv administered 30 mins prior to 68.4 J cm'-2 light irradiation for 3 mins on day 1, 2, 7, and 9. It is filed as organism-based. As to conditions: in vivo, 0.05 h.
In data set [18] the test system is B16-F10-luc2. Put plainly: Photo-activated cytotoxicity against mouse B16-F10-luc2 cells assessed as reduction in cell viability preincubated for 3 hrs followed by compound washout and subsequent 22.8 J cm'-2 light irradiation for 60 secs measured after 21 hrs by MTT assay. Format: functional, cell-based. As to conditions: B16-F10-luc2, light or radiation study.

In data set [19] the test system is B16-F10-luc2. Put plainly: Induction of apoptosis in mouse B16-F10-luc2 cells assessed as increase in late apoptotic cells at 1 uM preincubated for 3 hrs followed by compound washout and subsequent 22.8 J cm'-2 light irradiation for 60 secs measured after 21 hrs by Alexa Fluor 488 Annexin V/Dead Cell staining based flow cytometry. It is filed as functional.
Data set [20] has as its system B16-F10-luc2. Put plainly: Antitumor activity against mouse B16-F10-luc2 cells implanted in SCID mouse assessed as tumor growth at 100 uM, iv administered 30 mins prior to 68.4 J cm'-2 light irradiation for 3 mins on day 1, 2, 7, and 9 measured for 12 days relative to control. Format: functional.
The subject of data set [21] is B16-F10-luc2. Kind of data set: Induction of apoptosis in mouse B16-F10-luc2 cells assessed as decrease in viable cells at 1 uM preincubated for 3 hrs followed by compound washout and subsequent 22.8 J cm'-2 light irradiation for 60 secs measured after 21 hrs by Alexa Fluor 488 Annexin V/Dead Cell staining based flow cytometry. It is filed as functional.
Data set [22] relates to B16-F10-luc2. Kind of data set: Induction of reactive oxygen species generation in mouse B16-F10-luc2 cells at 10 uM preincubated for 3 hrs followed by compound washout prior to […] addition for 1 hr and subsequent 22.8 J cm'-2 light irradiation for 60 secs post media washout and measured immediately by fluorescence assay. Format: functional, cell-based.
In data set [23] the test system is B16-F10-luc2. Put plainly: Induction of apoptosis in mouse B16-F10-luc2 cells assessed as increase in necrotic cells at 1 uM preincubated for 3 hrs followed by compound washout and subsequent 22.8 J cm'-2 light irradiation for 60 secs measured after 21 hrs by Alexa Fluor 488 Annexin V/Dead Cell staining based flow cytometry. It is filed as functional.
Data set [24] deals with HeLa. Put plainly: Photo-activated cytotoxicity against human HeLa cells assessed as reduction in cell viability preincubated for 3 hrs followed by compound washout and subsequent 22.8 J cm'-2 light irradiation for 60 secs measured after 21 hrs by MTT assay. As to conditions: light or radiation study. It is filed as functional, cell-based.
In data set [25] the test system is MCF7. Put plainly: Photo-activated cytotoxicity against human MCF7 cells assessed as reduction in cell viability up to 1 uM preincubated for 3 hrs followed by compound washout and subsequent 22.8 J cm'-2 light irradiation for 60 secs measured after 21 hrs by MTT assay. Format: functional, cell-based.

In the case of `C=Cc1c(C)c2cc3[nH]c(cc4nc(cc5nc(cc1[nH]2)C(C)=C5CCC(=O)O)C(CCC(=O)O)=C4C)c(C)c3C=C`, in data set [1], the IC50 (usually the concentration that inhibits the measured activity by half) amounted to 1610 nM.

Take `C=Cc1c(C)c2cc3[nH]c(cc4nc(cc5nc(cc1[nH]2)C(C)=C5CCC(=O)N[C@@H](CS)C(=O)N[C@@H](CCCCN)C(=O)N[C@@H](CC(C)C)C(=O)N[C@@H](C)C(=O)N[C@@H](CCCCN)C(=O)N[C@@H](CC(C)C)C(=O)N[C@@H](C)C(=O)N[C@@H](CCCCN)C(=O)N[C@@H](CCCCN)C(=O)N[C@@H](CC(C)C)C(=O)N[C@@H](C)C(=O)N[C@@H](CCCCN)C(=O)N[C@@H](CC(C)C)C(=O)N[C@@H](C)C(=O)N[C@@H](CCCCN)C(N)=O)C(CCC(=O)O)=C4C)c(C)c3C=C`: the viability at 1 µM in data set [2] was 38%. For the same molecule, the viability at 24 h, 1 µM in [3] was found to be 46%.

`O=C([O-])c1c(Cl)c(Cl)c(Cl)c(Cl)c1-c1c2cc(I)c(=O)c(I)c-2oc2c(I)c([O-])c(I)cc12.[Na+].[Na+]` [ROSE BENGAL SODIUM]: the figures for the Activity entry in [4], in data set [5] and in data set [7] were “Active”, “Active” and 502%, respectively. Also, the viability at 1 µM in data set [2] is 69%. Moreover, the outcome in [6] and in [8] was Active.

Consider `CC(C)C[C@H](NC(=O)[C@H](CCCCN)NC(=O)[C@H](C)NC(=O)[C@H](CC(C)C)NC(=O)[C@H](CCCCN)NC(=O)[C@H](CCCCN)NC(=O)[C@H](C)NC(=O)[C@H](CC(C)C)NC(=O)[C@H](CCCCN)NC(=O)[C@H](C)NC(=O)[C@H](CC(C)C)NC(=O)[C@H](CCCCN)NC(=O)[C@H](CS)NC(=O)CCCCCCCOC(=O)c1c(Cl)c(Cl)c(Cl)c(Cl)c1-c1c2cc(I)c(=O)c(I)c-2oc2c(I)c(O)c(I)cc12)C(=O)N[C@@H](C)C(=O)N[C@@H](CCCCN)C(N)=O`, for which the result in data set [9], in data set [11], in [13], in data set [14], in data set [15] and in data set [6] was Active. The outcome in data set [19], in [21], in [22], in [23], in data set [8] and in [25] was Active. Further, the Activity result in data set [4] is “Active”; in [10] it was 573%; in data set [12], “Non-Toxic”; in data set [17], “Non-Toxic”; in data set [5], “Active”; in data set [20] it was 23%. Also, in [2], the viability at 1 µM was 6%. Further, the Drug uptake in data set [16] was 69%. For the same molecule, the concentration for half-maximal inhibition (IC50) in [18] stood at 310 nM; in data set [24] it was 290 nM. For the same molecule, the viability at 24 h, 1 µM in [3] turned out to be 69%.

As to `O=C(O)CCCCCCCOC(=O)c1c(Cl)c(Cl)c(Cl)c(Cl)c1-c1c2cc(I)c(=O)c(I)c-2oc2c(I)c(O)c(I)cc12`, in data set [2], the viability at 1 µM was 62%. For the same molecule, the result in [13] and in data set [6] was Active.
